A word on the Ki: it is a dissociation constant, usually derived from enzyme kinetics or from competition with a known ligand.

Sequence of Ghrelin receptor (Q92847 whole entry): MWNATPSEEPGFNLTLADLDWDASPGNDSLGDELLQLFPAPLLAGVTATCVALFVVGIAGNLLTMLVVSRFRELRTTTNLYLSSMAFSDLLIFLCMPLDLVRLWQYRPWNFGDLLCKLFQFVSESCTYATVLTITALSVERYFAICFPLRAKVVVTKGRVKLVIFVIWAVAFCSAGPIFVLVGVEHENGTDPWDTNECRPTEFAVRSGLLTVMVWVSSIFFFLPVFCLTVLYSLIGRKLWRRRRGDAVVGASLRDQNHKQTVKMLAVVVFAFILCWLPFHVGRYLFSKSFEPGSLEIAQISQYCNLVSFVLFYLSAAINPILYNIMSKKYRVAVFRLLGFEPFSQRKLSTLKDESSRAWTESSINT

The first assay concerns the target Ghrelin receptor (Homo sapiens, UniProt Q92847). Kind of assay: Receptor Selection and Amplification Technology (R-SAT) assay. On the set-up: expressed in transfected cells; host or cells: NIH3T3. In kind it is cell-based. To be noted: […]; '—' not defined (nd used separately); read-out: RSAT pIC50 (converted).
As to `COc1cccc2c(C(=O)C3CC3)cn(CCCN3CCCN(Cc4ccc(F)cc4)CC3)c12`, the IC50 was 0.00126 µM.

Regarding `COc1cccc2c(C(=O)NCc3cccc(C)c3)cn(CCCN3C4CCC3CC(CC(=O)c3ccccc3)C4)c12` (stereo not drawn), the IC50 is 0.00158 µM.

Turning to `CCCCC[C@H]1C[C@H]2CC[C@@H](C1)N2CCCn1cc(C(=O)NCc2cccc(C)c2)c2cccc(OC)c21`, the IC50 is 0.002 µM.

With `COc1cccc2c(C(=O)NCc3cccc(C)c3)cn(CCCN3CCC(c4nc5ccccc5s4)CC3)c12`, the IC50 was 0.00251 µM.

For the molecule `COc1cccc2c(C(=O)NCc3cccc(C)c3)cn(CCCN3CCC(Oc4ccc(F)cc4)CC3)c12`, the IC50 is 0.00316 µM.

On to `COc1cccc2c(C(=O)C3CC3)cn(CCCN3C4CCC3CC(CCc3ccc(Cl)cc3)C4)c12` (stereo not drawn), for which the IC50 was 0.00398 µM.

Take `COc1cccc2c(C(=O)C3CC3)cn(CCCN3C4CCC3CC(Oc3ccc(Cl)cc3)C4)c12` (stereo not drawn): the IC50 is 0.00398 µM.

`CC(=O)c1cn(CCCN2CCCN(CCc3ccccc3)CC2)c2c(Br)cccc12`: the IC50 is 0.00398 µM.

On to `COc1cccc2c(C(=O)NCc3cccc(C)c3)cn(CCCN3CCN(CCOc4ccccc4)CC3)c12`, for which the IC50 is 0.02 µM.

With `COc1cccc2c(C(=O)NCC(C)C)cn(CCCN3CCCN(Cc4ccc(F)cc4)CC3)c12`, the IC50 was 0.0251 µM.

For `COc1cccc2c(C(=O)NCc3cccc(C)c3)cn(CCCN3CCN(Cc4ccc(Cl)cc4Cl)CC3)c12`, the IC50 is 0.0251 µM.

Consider `COc1cccc2c(C(=O)Cc3ccccc3)cn(CCCN3CCC(CCOc4ccc(Cl)cc4)CC3)c12`, for which the IC50 is 0.0251 µM.

For the molecule `CCCCCC1CC2CCC(C1)N2CCCn1cc(C(C)=O)c2ccccc21` (stereo not drawn), the IC50 is 0.0316 µM.

Regarding `COc1cccc2c(C(=O)NCc3cccc(Cl)c3)cn(CCCN3C4CCC3CC(Oc3ccc(F)cc3)C4)c12` (stereo not drawn), the IC50 is 0.0398 µM.

As to `COc1ccc2[nH]c3c(c2c1)CCN(CCCn1cc(C(C)=O)c2cccc(OC)c21)C3`, the IC50 was 0.0501 µM.

Turning to `COc1cccc2c(C(C)=O)cn(CCCN3C4CCC3CC(OCC3CC3)C4)c12` (stereo not drawn), the IC50 is 0.0501 µM.

Turning to `COc1cccc2c(C(=O)C3CC3)cn(CCCN3CCC(Oc4ccccc4Cl)CC3)c12`, the IC50 was 0.0501 µM.

For `COc1cccc2c(C(=O)NCc3cccc(Cl)c3)cn(CCCN3CCC(Oc4ccc(Cl)cc4)CC3)c12`, the IC50 was 0.0501 µM.

Turning to `CCCCC[C@H]1C[C@H]2CC[C@@H](C1)N2CCCn1cc(C(=O)NCc2cccc(Cl)c2)c2cccc(OC)c21`, the IC50 was 0.0501 µM.

As to `COc1cccc2c(C(=O)NCc3cccc(Cl)c3)cn(CCCN3[C@@H]4CC[C@H]3C[C@@H](CC(=O)c3ccccc3)C4)c12`, the IC50 is 0.0501 µM.

The assay is the same for the next values; noted with them: percent inhibition at saturating ligand, normalized to reference ligand Substance P analog = 100%; read-out: RSAT Eff(%).
With `COc1ccc2[nH]c3c(c2c1)CCN(CCCn1cc(C(C)=O)c2cccc(OC)c21)C3`, the Emax is 123%.

The assay is the same for the next values; noted with them: read-out: RSAT Eff(%).
In the case of `COc1cccc2c(C(=O)C3CC3)cn(CCCN3CCCN(Cc4ccc(F)cc4)CC3)c12`, the Emax came to 92%.

With `COc1cccc2c(C(=O)NCc3cccc(C)c3)cn(CCCN3C4CCC3CC(CC(=O)c3ccccc3)C4)c12` (stereo not drawn), the Emax was determined as 106%.

Turning to `CCCCC[C@H]1C[C@H]2CC[C@@H](C1)N2CCCn1cc(C(=O)NCc2cccc(C)c2)c2cccc(OC)c21`, the Emax amounted to 90%.

With `COc1cccc2c(C(=O)NCc3cccc(C)c3)cn(CCCN3CCC(c4nc5ccccc5s4)CC3)c12`, the Emax stood at 94%.

With `COc1cccc2c(C(=O)NCc3cccc(C)c3)cn(CCCN3CCC(Oc4ccc(F)cc4)CC3)c12`, the Emax was 81%.

`COc1cccc2c(C(=O)C3CC3)cn(CCCN3C4CCC3CC(CCc3ccc(Cl)cc3)C4)c12` (stereo not drawn): the Emax amounted to 103%.

In the case of `COc1cccc2c(C(=O)C3CC3)cn(CCCN3C4CCC3CC(Oc3ccc(Cl)cc3)C4)c12` (stereo not drawn), the Emax amounted to 86%.

For `CC(=O)c1cn(CCCN2CCCN(CCc3ccccc3)CC2)c2c(Br)cccc12`, the Emax is 98%.

As for `COc1cccc2c(C(=O)NCc3cccc(C)c3)cn(CCCN3CCN(CCOc4ccccc4)CC3)c12`, the Emax is 89%.

Turning to `COc1cccc2c(C(=O)NCC(C)C)cn(CCCN3CCCN(Cc4ccc(F)cc4)CC3)c12`, the Emax came to 118%.

As to `COc1cccc2c(C(=O)NCc3cccc(C)c3)cn(CCCN3CCN(Cc4ccc(Cl)cc4Cl)CC3)c12`, the Emax stood at 110%.

With `COc1cccc2c(C(=O)Cc3ccccc3)cn(CCCN3CCC(CCOc4ccc(Cl)cc4)CC3)c12`, the Emax was determined as 121%.

With `CCCCCC1CC2CCC(C1)N2CCCn1cc(C(C)=O)c2ccccc21` (stereo not drawn), the Emax was determined as 104%.

For `COc1cccc2c(C(=O)NCc3cccc(Cl)c3)cn(CCCN3C4CCC3CC(Oc3ccc(F)cc3)C4)c12` (stereo not drawn), the Emax was found to be 152%.

`COc1cccc2c(C(C)=O)cn(CCCN3C4CCC3CC(OCC3CC3)C4)c12` (stereo not drawn): the Emax came to 113%.

Regarding `COc1cccc2c(C(=O)C3CC3)cn(CCCN3CCC(Oc4ccccc4Cl)CC3)c12`, the Emax stood at 102%.

As for `COc1cccc2c(C(=O)NCc3cccc(Cl)c3)cn(CCCN3CCC(Oc4ccc(Cl)cc4)CC3)c12`, the Emax came out at 123%.

Take `CCCCC[C@H]1C[C@H]2CC[C@@H](C1)N2CCCn1cc(C(=O)NCc2cccc(Cl)c2)c2cccc(OC)c21`: the Emax was found to be 123%.

`COc1cccc2c(C(=O)NCc3cccc(Cl)c3)cn(CCCN3[C@@H]4CC[C@H]3C[C@@H](CC(=O)c3ccccc3)C4)c12`: the Emax came to 111%.

The target in another assay is T1, GHSR1a receptor (Homo sapiens, UniProt Q92847).
T1 construct: expressed in transfected cells; host or cells: HEK293 (membranes)
T1 sequence (Q92847 whole entry): as above
Kind of assay: 125I-Ghrelin binding assay. The conditions noted are these: Binding pKi, displacement of 125I-ghrelin (0.053 nM), membranes of HEK293 cells transfected with GHSR1a; Cheng-Prussoff; '—' not defined. The protocol: Plasmid DNA containing the GHSR1a receptor (12.5 ug/dish) in 0.675 ml DMEM was transfected into the cells by mixing with 180 ul PolyFect, 15 min later mixing in 2.25 ml 10% CS/DMEM, and transferring the mixture into the dish. At 16-18 h post transfection, medium was replaced with 25 ml fresh 10% FCS/1% PSG/DMEM to each dish for another 18-20 h. At approximately 48 hours post-transfection, cells were harvested in ice-cold membrane buffer (20 mM HEPES, 6 mM MgCl2, 1 mM EDTA, pH to 7.2) using a cell scraper, and pelleted by centrifugation.
Pelleted cells were added to a nitrogen cavitation chamber and 900 bar of pressure applied for 30 min. The pressure was slowly released the cavitated cells collected in 50 ml falcon tubes. The tubes were centrifuged at 1000 rpm, 4° C. for 10 min, and the supernatant collected. This centrifugation and collection was repeated two more times until the supernatant was free of precipitate (membranes are still in suspension). The supernatant was poured into a 50 ml centrifuge tube and centrifuged at 10.000 rpm, 4° C. for 20 min. The supernatant was discarded and the pellet re-suspended in 750 μl membrane binding buffer using a chilled 1 ml syringe with 25G5/8 needle to re-suspend membranes. The protein concentration was determined using the BioRad Protein Assay Dye Reagent according to the manufacturers instructions. The protein concentration was adjusted to 5 mg/ml and aliquots snap-frozed and stored at −80 C until use.
Membranes were thawed rapidly; diluted with binding buffer (25 mM Hepes+5 mM MgCl2, 1 mM CaCl2, 2.5 mM EDTA and 0.2% BSA) to a protein concentration of 0.8 ug/30 ul and placed on ice. 96-well plates (U-bottom wells) were prepared with serial dilutions (8 doses, 40 ul/w) of the test compounds. Membranes (30 uL/well) were then added, and incubated with test ligands for 30 min at room temperature with shaking. […] Binding was terminated by filtration through GF/B filters (presoaked with 0.1% polyethylenimine) with a Brandel 96-well harvester. The filters were washed with ice-cold binding buffer (150 ml/plate) and allowed to air-dry for 30 min. 50 ul MicroScient-20 cocktail was added to each dried well, the plates were sealed, and counted for 2 min/well using a TopCount scintillation counter (Packard).
In general terms: In a radioligand displacement assay an active substance lowers the binding of a labelled ligand.
The molecule `COc1cccc2c(C(=O)C3CC3)cn(CCCN3CCCN(Cc4ccc(F)cc4)CC3)c12` gave a Ki of 0.00794 µM.

Regarding `COc1cccc2c(C(=O)NCc3cccc(C)c3)cn(CCCN3C4CCC3CC(CC(=O)c3ccccc3)C4)c12` (stereo not drawn), affinity was put at a Ki of 0.002 µM.

Turning to `CCCCC[C@H]1C[C@H]2CC[C@@H](C1)N2CCCn1cc(C(=O)NCc2cccc(C)c2)c2cccc(OC)c21`, the Ki was 0.0501 µM.

`COc1cccc2c(C(=O)NCc3cccc(C)c3)cn(CCCN3CCC(c4nc5ccccc5s4)CC3)c12`: the Ki is 0.0631 µM.

In the case of `COc1cccc2c(C(=O)NCc3cccc(C)c3)cn(CCCN3CCC(Oc4ccc(F)cc4)CC3)c12`, the affinity corresponds to a Ki of 0.1 µM.

On to `COc1cccc2c(C(=O)C3CC3)cn(CCCN3C4CCC3CC(CCc3ccc(Cl)cc3)C4)c12` (stereo not drawn), for which the Ki is 0.02 µM.

In the case of `COc1cccc2c(C(=O)C3CC3)cn(CCCN3C4CCC3CC(Oc3ccc(Cl)cc3)C4)c12` (stereo not drawn), the Ki is 0.158 µM.

In the case of `CC(=O)c1cn(CCCN2CCCN(CCc3ccccc3)CC2)c2c(Br)cccc12`, the affinity corresponds to a Ki of 0.0794 µM.

The molecule `COc1cccc2c(C(=O)NCc3cccc(C)c3)cn(CCCN3CCN(CCOc4ccccc4)CC3)c12` showed a Ki of 0.00794 µM.

Turning to `COc1cccc2c(C(=O)NCC(C)C)cn(CCCN3CCCN(Cc4ccc(F)cc4)CC3)c12`, the affinity, expressed as Ki, was 0.1 µM.

In turn, `COc1cccc2c(C(=O)NCc3cccc(C)c3)cn(CCCN3CCN(Cc4ccc(Cl)cc4Cl)CC3)c12` showed a Ki of 1 µM.

On to `COc1cccc2c(C(=O)Cc3ccccc3)cn(CCCN3CCC(CCOc4ccc(Cl)cc4)CC3)c12`, for which the Ki is 0.251 µM.

In turn, `CCCCCC1CC2CCC(C1)N2CCCn1cc(C(C)=O)c2ccccc21` (stereo not drawn) had a Ki of 1.58 µM.

`COc1cccc2c(C(=O)NCc3cccc(Cl)c3)cn(CCCN3C4CCC3CC(Oc3ccc(F)cc3)C4)c12` (stereo not drawn) gave a Ki of 0.158 µM.

`COc1ccc2[nH]c3c(c2c1)CCN(CCCn1cc(C(C)=O)c2cccc(OC)c21)C3` gave a Ki of 1 µM.

Regarding `COc1cccc2c(C(C)=O)cn(CCCN3C4CCC3CC(OCC3CC3)C4)c12` (stereo not drawn), the affinity, expressed as Ki, was 1.58 µM.

As for `COc1cccc2c(C(=O)C3CC3)cn(CCCN3CCC(Oc4ccccc4Cl)CC3)c12`, the Ki is 3.16 µM.

The molecule `COc1cccc2c(C(=O)NCc3cccc(Cl)c3)cn(CCCN3CCC(Oc4ccc(Cl)cc4)CC3)c12` showed a Ki of 0.631 µM.

The molecule `CCCCC[C@H]1C[C@H]2CC[C@@H](C1)N2CCCn1cc(C(=O)NCc2cccc(Cl)c2)c2cccc(OC)c21` gave a Ki of 0.2 µM.

On to `COc1cccc2c(C(=O)NCc3cccc(Cl)c3)cn(CCCN3[C@@H]4CC[C@H]3C[C@@H](CC(=O)c3ccccc3)C4)c12`, for which the Ki is 0.0631 µM.
